Experimental findings from US20220401662A1, “ACOUSTIC NEBULISER FOR DELIVERY OF ACTIVE AGENTS” (Royal Melbourne Institute of Technology, priority 2020, published 2022) are described below.

This series in a line: human clinical trial of lung delivery by inhalation of [99mTc]DTPA aerosol from the nebuliser. Type of series: in vivo. To be noted: for Left lung dose / Right lung dose / Total lung dose: inhalation via described nebuliser, unadjusted. From the text: Nebulisers in accordance with the described embodiments have been subject to human clinical trials to determine efficiency of delivery of active agents to the lungs by inhalation using Technetium-99m DTPA aerosol ([^99mTc]DTPA aerosol).

For “Technetium-99m DTPA [[^99mTc]DTPA aerosol]”, the Left lung dose is 7.15 MBq (Volunteer 1), 25.2 MBq (Volunteer 2), 22.2 MBq (Volunteer 3) and 23.3 MBq (Volunteer 4). The Right lung dose is, setting by setting: (Volunteer 1) 8.25 MBq; (Volunteer 2) 27.1 MBq; (Volunteer 3) 21.9 MBq; (Volunteer 4) 26.6 MBq. Moreover, the Total lung dose reads like this: (Volunteer 1) 15.4 MBq; (Volunteer 2) 52.3 MBq; (Volunteer 3) 44.1 MBq; (Volunteer 4) 49.9 MBq. Besides, the “efficiency of delivery to the lungs by inhalation” value (human clinical trials, initial results) was “effective delivery of nebulised active agent to the target tissue”.
